SMILES strings stand for the structures.

For experiment [1], the system named is STAT1 (phosphorylated at Tyr701) in NCI-H1373 cells. Description: Phospho-STAT1 (Tyr701) LANCE Ultra TR-FRET Detection Assay. In kind it is cell-based. Conditions: Homo sapiens, 48 hours, induction of pSTAT1, normalized to 10 uM positive control and DMSO, 4-parameter fit, read-out: NH1373 pSTAT1 EC50. The protocol:
Phospho-STAT1 (Tyr701 LANCE Ultra TR-FRET Detection Assay
LANCE Ultra phospho-STAT1 (Tyr701) kits available from Perkin Elmer are designed for the detection of phosphorylated STAT1 in cell lysates using a simple, homogeneous LANCE Ultra sandwich assay (Cat. #TRF4028M). This assay is intended for assessing compound induction of endogenous levels of cellular STAT1 (phosphorylated at Tyr701) in NCI-H1373 cells. The NCI-H1373 cells are cultured in RPMI 1640 media containing 10% heat inactivated FBS, GlutaMAX, 1% Penicillin-Streptomycin. An Echo acoustic liquid handler is used to transfer 60 nanoliters of compound dilutions using the Echo Qualified, 384-well polypropylene microplate clear flat bottom source plates into a Greiner (#781080) cell culture microplate. NCI-H1373 cells are seeded into these compound-spotted culture plates at 30,000 cells/well in a 60 uL volume in growth media. The plates are incubated in a 5% CO2 humidified incubator at 37° C. for 48 hours. […] Briefly, 20 μL of supplemented lysis buffer is added to each well and allowed to shake for 1 hour at 400 rpm. Next, 5 ul of remixed antibody solutions (vol/vol) prepared in detection buffer are added to each well and allowed to incubate at room temperature overnight. After spinning the plate down at 300 rpm for […], the plate is read on an EnVision plate reader set up for Eu3+ Cryptate and fluorescence emission is measured at two different wavelengths (665 nm and 620 nm).
A general note: Time-resolved FRET reads energy transfer from a long-lived donor to a nearby acceptor.

Experiment [2] addresses T1, PARP7 (Homo sapiens, UniProt Q7Z3E1).
T1 sequence (Q7Z3E1 1-657): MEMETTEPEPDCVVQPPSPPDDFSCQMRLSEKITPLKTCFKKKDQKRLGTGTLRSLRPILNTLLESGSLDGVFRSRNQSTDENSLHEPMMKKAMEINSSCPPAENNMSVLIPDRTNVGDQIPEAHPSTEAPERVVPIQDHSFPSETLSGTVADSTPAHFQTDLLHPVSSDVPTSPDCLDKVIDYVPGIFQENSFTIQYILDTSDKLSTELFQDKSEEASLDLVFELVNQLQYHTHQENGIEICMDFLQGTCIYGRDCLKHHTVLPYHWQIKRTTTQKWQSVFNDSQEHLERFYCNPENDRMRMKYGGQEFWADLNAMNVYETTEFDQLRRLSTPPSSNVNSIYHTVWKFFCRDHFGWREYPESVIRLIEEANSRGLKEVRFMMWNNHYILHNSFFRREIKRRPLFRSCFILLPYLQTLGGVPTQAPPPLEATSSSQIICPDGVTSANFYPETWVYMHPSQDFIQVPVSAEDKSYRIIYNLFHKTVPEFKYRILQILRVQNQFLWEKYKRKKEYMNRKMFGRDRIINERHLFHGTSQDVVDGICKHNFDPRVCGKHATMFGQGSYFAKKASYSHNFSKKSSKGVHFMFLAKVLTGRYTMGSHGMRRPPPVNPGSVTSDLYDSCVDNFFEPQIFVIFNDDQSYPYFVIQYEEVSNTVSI
Description: biochemical.
Description: Probe Displacement Assay for PARP7 Displacement of a biotinylated probe (RBN011147; Wigle et al., Cell Chemical Biology, 2020, pp. 877-887) from the PARP7 NAD+-binding site was measured in vitro using a Mesoscale Discovery electrochemiluminescent assay. […] Next, 10 μl of 10 nM PARP7 protein incubated for 1 hour at room temperature with a dose response curve of each test compound in a Greiner LDV polypropylene plate (#781201) is added to the MSD plate containing the immobilized probe. The interaction is allowed to reach equilibrium for 1.5 hours, and then 10 ul of SULFO-TAG labeled anti-GST antibody (Cat #R32AA-1) is added to each well and allowed to incubate for an additional 1.5 hours at room temperature. Finally, 10 μl of MSD read buffer T (4×, Cat. #R92C-1) is added to each well using a Bravo liquid handler to prevent air bubbles in the wells, and the plates are subsequently read in an MSD instrument. Light intensity is then measured to quantify the amount of PARP7 bound to the immobilized probe on the plate.
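Throughout, for IC50: MSD light signal quantifying PARP7 captured by a plate-immobilized probe, read after 1.5 h equilibration plus 1.5 h with SULFO-TAG anti-GST antibody at room temperature.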

For the compound `O=C(CCc1ccccc1-c1cc(C(F)(F)F)c(=O)[nH]n1)N1CCN(c2ncc(C(F)(F)F)cn2)CC1` [Example 3, 6-(2-(3-oxo-3-(4-(5-(trifluoromethyl)pyrimidin-2-yl)piperazin-1-yl)propyl)phenyl)-4-(trifluoromethyl)pyridazin-3(2H)-one], in experiment [1], the EC50 (commonly the concentration that produces a half-maximal response) was at least 10000 nM.
Turning to `O=C(N1CCN(c2ncc(C(F)(F)F)cn2)CC1)C1(CCNc2cc(C(F)(F)F)c(=O)[nH]n2)CC1` [Example 70, 5-(trifluoromethyl)-3-[2-[1-[4-[5-(trifluoromethyl)pyrimidin-2-yl]piperazine-1-carbonyl]cyclopropyl]ethylamino]-1H-pyridazin-6-one], 0.372 nM corresponded to half-maximal inhibition in experiment [2] (IC50). Also, the EC50 in experiment [1] turned out to be 319 nM.
The corresponding values for `O=C(C[C@H]1CCCCN1c1cc(C(F)(F)F)c(=O)[nH]n1)N1CCN(c2ncc(C(F)(F)F)cn2)CC1` [Example 34, (R)-6-(2-(2-oxo-2-(4-(5-(trifluoromethyl)pyrimidin-2-yl)piperazin-1-yl)ethyl)piperidin-1-yl)-4-(trifluoromethyl)pyridazin-3(2H)-one] are 4.46 nM and 1690 nM.
The corresponding values for `O=C(C[C@@H]1CCCCN1c1cc(C(F)(F)F)c(=O)[nH]n1)N1CCN(c2ncc(C(F)(F)F)cn2)CC1` [Example 30, (S)-6-(2-(2-oxo-2-(4-(5-(trifluoromethyl)pyrimidin-2-yl)piperazin-1-yl)ethyl)piperidin-1-yl)-4-(trifluoromethyl)pyridazin-3(2H)-one] are 2.32 nM and 779 nM.
The corresponding values for `O=C(CNc1cc(C(F)(F)F)c(=O)[nH]n1)N1CCN(c2ncc(C(F)(F)F)cn2)CC1` [Example 16, 6-((2-oxo-2-(4-(5-(trifluoromethyl)pyrimidin-2-yl)piperazin-1-yl)ethyl)amino)-4-(trifluoromethyl)pyridazin-3(2H)-one] are 1.15 nM and 171 nM.
As for `O=C([C@@H]1Cc2ccccc2CN1c1cc(C(F)(F)F)c(=O)[nH]n1)N1CCN(c2ncc(C(F)(F)F)cn2)CC1` [Example 57, 5-(trifluoromethyl)-3-[(3S)-3-[4-[5-(trifluoromethyl)pyrimidin-2-yl]piperazine-1-carbonyl]-3,4-dihydro-1H-isoquinolin-2-yl]-1H-pyridazin-6-one], in experiment [2], the half-maximal inhibitory concentration (IC50) – broadly, the concentration needed to halve the response being measured – stood at 4.37 nM. Moreover, the concentration for a half-maximal effect (EC50) in experiment [1] was 1710 nM.
The corresponding values for `O=C([C@@H]1CCC[C@H](Nc2cc(C(F)(F)F)c(=O)[nH]n2)C1)N1CCN(c2ncc(C(F)(F)F)cn2)CC1` [Example 60, 5-(trifluoromethyl)-3-[[(1S,3R)-3-[4-[5-(trifluoromethyl)pyrimidin-2-yl]piperazine-1-carbonyl]cyclohexyl]amino]-1H-pyridazin-6-one] are 1.07 nM and at least 10000 nM.
As to `O=C(CCCCCc1cc(C(F)(F)F)c(=O)[nH]n1)N1CCN(c2ncc(C(F)(F)F)cn2)CC1` [Example 2, 6-(6-oxo-6-(4-(5-(trifluoromethyl)pyrimidin-2-yl)piperazin-1-yl)hexyl)-4-(trifluoromethyl)pyridazin-3(2H)-one], the EC50 in experiment [1] was at least 10000 nM.
As for `O=C(C[C@H]1CCc2c1n[nH]c(=O)c2C(F)(F)F)N1CCN(c2ncc(C(F)(F)F)cn2)CC1` [Example 81, (R)-7-(2-oxo-2-(4-(5-(trifluoromethyl)pyrimidin-2-yl)piperazin-1-yl)ethyl)-4-(trifluoromethyl)-2,5,6,7-tetrahydro-3H-cyclopenta[c]pyridazin-3-one], the EC50 in experiment [1] was at least 10000 nM.
Same read-out and setting: the result for `CC(C)(CCCc1cc(C(F)(F)F)c(=O)[nH]n1)C(=O)N1CCN(c2ncc(C(F)(F)F)cn2)CC1` [Example 10, 6-(4,4-dimethyl-5-oxo-5-(4-(5-(trifluoromethyl)pyrimidin-2-yl)piperazin-1-yl)pentyl)-4-(trifluoromethyl)pyridazin-3(2H)-one] reads at least 10000 nM; that for `O=C(CCCc1ccccc1-c1cc(C(F)(F)F)c(=O)[nH]n1)N1CCN(c2ncc(C(F)(F)F)cn2)CC1` [Example 5, 6-(2-(4-oxo-4-(4-(5-(trifluoromethyl)pyrimidin-2-yl)piperazin-1-yl)butyl)phenyl)-4-(trifluoromethyl)pyridazin-3(2H)-one], at least 10000 nM.
`O=c1[nH]nc(N[C@]23CO[C@](C(=O)N4CCN(c5ncc(C(F)(F)F)cn5)CC4)(C2)C3)cc1C(F)(F)F` [Example 46, 5-(trifluoromethyl)-3-[[1-[4-[5-(trifluoromethyl)pyrimidin-2-yl]piperazine-1-carbonyl]-2-oxabicyclo[2.1.1]hexan-4-yl]amino]-1H-pyridazin-6-one]: in experiment [1], the EC50 is at least 10000 nM.
Same read-out and setting: under `C[C@H](Nc1cc(C(F)(F)F)c(=O)[nH]n1)C(=O)N1CCN(c2ncc(C(F)(F)F)cn2)CC1` [Example 64, 3-[[(1S)-1-methyl-2-oxo-2-[4-[5-(trifluoromethyl)pyrimidin-2-yl]piperazin-1-yl]ethyl]amino]-5-(trifluoromethyl)-1H-pyridazin-6-one] stands 335 nM.
`O=c1[nH]nc(NCC2(N3CCN(c4ncc(C(F)(F)F)cn4)CC3)COC2)cc1C(F)(F)F` [Example 59, 5-(trifluoromethyl)-3-[[3-[4-[5-(trifluoromethyl)pyrimidin-2-yl]piperazin-1-yl]oxetan-3-yl]methylamino]-1H-pyridazin-6-one]: the EC50 in experiment [1] is at least 10000 nM.
For `O=C([C@H]1CC[C@H](Nc2cc(C(F)(F)F)c(=O)[nH]n2)C1)N1CCN(c2ncc(C(F)(F)F)cn2)CC1` [Example 65, 5-(trifluoromethyl)-3-[[(1S,3S)-3-[4-[5-(trifluoromethyl)pyrimidin-2-yl]piperazine-1-carbonyl]cyclopentyl]amino]-1H-pyridazin-6-one], the EC50 in experiment [1] is at least 10000 nM.
As to `O=c1[nH]nc(N[C@]23CC[C@](C(=O)N4CCN(c5ncc(C(F)(F)F)cn5)CC4)(C2)C3)cc1C(F)(F)F` [Example 48, 5-(trifluoromethyl)-3-[[4-[4-[5-(trifluoromethyl)pyrimidin-2-yl]piperazine-1-carbonyl]-1-bicyclo[2.1.1]hexanyl]amino]-1H-pyridazin-6-one], in experiment [1], the EC50 is at least 10000 nM.
With `O=C(c1cccc(Oc2cc(C(F)(F)F)c(=O)[nH]n2)c1)N1CCN(c2ncc(C(F)(F)F)cn2)CC1` [Example 35, 4-(trifluoromethyl)-6-(3-(4-(5-(trifluoromethyl)pyrimidin-2-yl)piperazine-1-carbonyl)phenoxy)pyridazin-3(2H)-one], the EC50 in experiment [1] is at least 10000 nM.
`O=C(C[C@@H]1CCc2c1n[nH]c(=O)c2C(F)(F)F)N1CCN(c2ncc(C(F)(F)F)cn2)CC1` [Example 80, (S)-7-(2-oxo-2-(4-(5-(trifluoromethyl)pyrimidin-2-yl)piperazin-1-yl)ethyl)-4-(trifluoromethyl)-2,5,6,7-tetrahydro-3H-cyclopenta[c]pyridazin-3-one]: the EC50 in experiment [1] worked out at 429 nM.
Still for that read-out and setting: under `O=C(CCCNc1c[nH]c(=O)c(C(F)(F)F)c1)N1CCN(c2ncc(C(F)(F)F)cn2)CC1` [Example 41, 5-((4-oxo-4-(4-(5-(trifluoromethyl)pyrimidin-2-yl)piperazin-1-yl)butyl)amino)-3-(trifluoromethyl)pyridin-2(1H)-one] stands at least 10000 nM; under `C[C@@H](Nc1cc(C(F)(F)F)c(=O)[nH]n1)C(=O)N1CCN(c2ncc(C(F)(F)F)cn2)CC1` [Example 66, 3-[[(1R)-1-methyl-2-oxo-2-[4-[5-(trifluoromethyl)pyrimidin-2-yl]piperazin-1-yl]ethyl]amino]-5-(trifluoromethyl)-1H-pyridazin-6-one], at least 10000 nM; under `O=C([C@H]1CC[C@@H](Nc2cc(C(F)(F)F)c(=O)[nH]n2)C1)N1CCN(c2ncc(C(F)(F)F)cn2)CC1` [Example 63, 5-(trifluoromethyl)-3-[[(1R,3S)-3-[4-[5-(trifluoromethyl)pyrimidin-2-yl]piperazine-1-carbonyl]cyclopentyl]amino]-1H-pyridazin-6-one], at least 10000 nM.
Consider `O=C([C@H]1CN(c2cc(C(F)(F)F)c(=O)[nH]n2)CCO1)N1CCN(c2ncc(C(F)(F)F)cn2)CC1` [Example 45, (R)-4-(trifluoromethyl)-6-(2-(4-(5-(trifluoromethyl)pyrimidin-2-yl)piperazine-1-carbonyl)morpholino)pyridazin-3(2H)-one], for which the half-maximal effective concentration (EC50) in experiment [1] is at least 10000 nM.

The record behind these values is patent US20230183216A1, “PYRIDIZIN-3(2H)-ONE DERIVATIVES” (Gilead Sciences, Inc., priority 2021, published 2023).
